Publication PMC4274051 (Nature, 2013)

Target: K-Ras(G12C) (Homo sapiens, UniProt P01116, G12C)
Experiment: disulphide tethering, intact protein mass spectrometry
Format: binding

Sequence of K-Ras(G12C) (P01116 1-169 isoform P01116-2 G12C): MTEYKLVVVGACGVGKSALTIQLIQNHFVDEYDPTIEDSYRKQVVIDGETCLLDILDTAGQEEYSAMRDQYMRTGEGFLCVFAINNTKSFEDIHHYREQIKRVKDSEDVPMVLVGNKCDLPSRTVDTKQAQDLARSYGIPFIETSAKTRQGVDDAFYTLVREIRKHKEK

% modification: 94 ± 1 % modification
SMILES: CN(C)CCSSCCNC(=O)C1CCN(C(=O)CSc2ccc(Cl)cc2)CC1 [6H05]
